Experiments:
DNAJC13 = molecular target: T1, DNAJC13 (Homo sapiens, UniProt O75165); experiment: 2D-TPP in U87 cells; assay type: binding; details: 1.5 h, stabilized, read-out: pEC50 of protein stabilization, DNAJC13 (converted)
T1 construct: endogenous in cells; host or cells: U87 cells

HSPA1A = HSPA1A (Homo sapiens, UniProt P0DMV8); experiment: TPP-TR in HAZV-infected SW13 cells; details: 20 μM, 4 h
Sequence of HSPA1A (P0DMV8 whole entry): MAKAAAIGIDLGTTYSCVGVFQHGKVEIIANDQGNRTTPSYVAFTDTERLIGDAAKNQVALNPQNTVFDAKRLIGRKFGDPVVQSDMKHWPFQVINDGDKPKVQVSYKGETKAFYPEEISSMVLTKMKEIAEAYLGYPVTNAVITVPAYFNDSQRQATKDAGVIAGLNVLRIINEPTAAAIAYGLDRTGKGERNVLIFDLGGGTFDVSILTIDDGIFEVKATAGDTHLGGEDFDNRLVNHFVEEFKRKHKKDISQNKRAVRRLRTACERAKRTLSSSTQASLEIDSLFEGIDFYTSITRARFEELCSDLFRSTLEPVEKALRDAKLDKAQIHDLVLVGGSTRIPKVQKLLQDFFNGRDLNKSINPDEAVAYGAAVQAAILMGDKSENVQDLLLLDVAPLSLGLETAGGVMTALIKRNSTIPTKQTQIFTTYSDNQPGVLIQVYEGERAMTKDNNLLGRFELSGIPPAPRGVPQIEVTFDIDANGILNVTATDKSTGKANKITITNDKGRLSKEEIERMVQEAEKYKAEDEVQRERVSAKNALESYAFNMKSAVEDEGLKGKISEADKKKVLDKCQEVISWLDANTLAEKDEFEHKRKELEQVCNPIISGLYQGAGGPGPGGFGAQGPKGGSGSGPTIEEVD

T1 sequence (O75165 whole entry): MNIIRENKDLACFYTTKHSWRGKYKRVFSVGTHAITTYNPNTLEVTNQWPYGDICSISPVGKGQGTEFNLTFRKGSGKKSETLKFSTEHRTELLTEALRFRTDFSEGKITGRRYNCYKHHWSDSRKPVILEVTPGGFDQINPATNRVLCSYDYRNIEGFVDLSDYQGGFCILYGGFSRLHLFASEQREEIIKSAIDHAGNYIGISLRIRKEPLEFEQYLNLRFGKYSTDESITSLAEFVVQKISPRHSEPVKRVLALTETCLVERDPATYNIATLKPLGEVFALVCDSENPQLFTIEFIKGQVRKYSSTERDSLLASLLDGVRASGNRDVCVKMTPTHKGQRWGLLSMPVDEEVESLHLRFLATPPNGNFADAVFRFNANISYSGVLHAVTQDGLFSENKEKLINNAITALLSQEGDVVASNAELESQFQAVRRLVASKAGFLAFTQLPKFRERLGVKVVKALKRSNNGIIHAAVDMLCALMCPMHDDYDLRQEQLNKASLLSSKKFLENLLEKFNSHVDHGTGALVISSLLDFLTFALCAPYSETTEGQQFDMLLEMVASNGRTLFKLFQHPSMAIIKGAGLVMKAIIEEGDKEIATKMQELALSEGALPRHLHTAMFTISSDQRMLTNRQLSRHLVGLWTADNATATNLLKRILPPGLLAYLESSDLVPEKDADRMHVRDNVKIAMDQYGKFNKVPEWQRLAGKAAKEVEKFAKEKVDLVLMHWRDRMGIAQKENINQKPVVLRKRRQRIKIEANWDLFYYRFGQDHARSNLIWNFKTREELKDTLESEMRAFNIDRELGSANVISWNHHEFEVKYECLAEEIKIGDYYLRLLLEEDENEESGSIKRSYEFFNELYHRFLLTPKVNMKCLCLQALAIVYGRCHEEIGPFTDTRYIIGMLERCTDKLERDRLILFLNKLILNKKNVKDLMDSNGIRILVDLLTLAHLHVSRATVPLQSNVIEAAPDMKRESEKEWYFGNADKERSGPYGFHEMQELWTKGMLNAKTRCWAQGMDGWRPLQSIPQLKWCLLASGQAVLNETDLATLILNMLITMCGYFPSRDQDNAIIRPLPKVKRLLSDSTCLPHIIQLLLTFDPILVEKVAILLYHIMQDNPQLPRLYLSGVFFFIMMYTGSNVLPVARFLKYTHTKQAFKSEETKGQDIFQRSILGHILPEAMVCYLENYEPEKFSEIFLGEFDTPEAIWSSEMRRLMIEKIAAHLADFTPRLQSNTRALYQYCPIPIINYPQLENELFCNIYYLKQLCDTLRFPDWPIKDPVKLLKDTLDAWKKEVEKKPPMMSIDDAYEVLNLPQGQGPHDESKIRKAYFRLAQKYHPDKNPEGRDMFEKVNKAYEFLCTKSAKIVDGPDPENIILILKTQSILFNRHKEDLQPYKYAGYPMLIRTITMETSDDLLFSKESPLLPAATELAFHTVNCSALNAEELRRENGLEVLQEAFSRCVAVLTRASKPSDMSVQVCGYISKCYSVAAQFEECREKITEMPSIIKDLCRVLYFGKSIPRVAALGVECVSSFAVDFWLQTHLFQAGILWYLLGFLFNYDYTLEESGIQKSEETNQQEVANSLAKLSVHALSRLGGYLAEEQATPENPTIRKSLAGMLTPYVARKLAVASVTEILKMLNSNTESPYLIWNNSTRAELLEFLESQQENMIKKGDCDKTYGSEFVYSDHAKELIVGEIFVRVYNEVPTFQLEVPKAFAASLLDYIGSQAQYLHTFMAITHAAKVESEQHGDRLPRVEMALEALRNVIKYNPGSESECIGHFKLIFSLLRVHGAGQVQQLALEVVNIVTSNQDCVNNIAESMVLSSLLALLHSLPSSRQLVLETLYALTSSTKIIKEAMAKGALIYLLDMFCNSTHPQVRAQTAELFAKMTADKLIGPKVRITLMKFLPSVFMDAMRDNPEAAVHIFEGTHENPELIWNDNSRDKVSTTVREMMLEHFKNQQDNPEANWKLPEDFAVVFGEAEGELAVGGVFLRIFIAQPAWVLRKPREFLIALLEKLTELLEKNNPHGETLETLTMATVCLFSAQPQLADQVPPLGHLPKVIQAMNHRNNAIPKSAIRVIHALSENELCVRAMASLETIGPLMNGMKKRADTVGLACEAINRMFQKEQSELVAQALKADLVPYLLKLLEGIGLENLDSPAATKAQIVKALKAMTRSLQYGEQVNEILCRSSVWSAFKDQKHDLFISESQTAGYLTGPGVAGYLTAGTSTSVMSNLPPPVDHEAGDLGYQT

`CCOC(=O)c1cnn(-c2cccc3c2[nH]c(=O)n3C2CCN(C(=O)Nc3ccc(I)cc3)CC2)c1` [TH6744, ethyl 1-(1-(1-((4-iodophenyl)carbamoyl)piperidin-4-yl)-2-oxo-2,3-dihydro-1H-benzo[d]imidazol-4-yl)-1H-pyrazole-4-carboxylate] was tested, and the EC50 (DNAJC13) was 1000 nM and the “thermal stability change of HSPA1A” value (HSPA1A) was “destabilized”.

Reference: paper PMC7762994 (Viruses, 2020)
